In article PMC10925993, “6-Aryl-4-cycloamino-1,3,5-triazine-2-amines: synthesis, antileukemic activity, and 3D-QSAR modelling” (RSC Advances, 2024):
Read-outs that look alike come from different tables or passages of the source.

What was measured:
Jurkat T cells [1] = test: Antiproliferative screening at 10 μM, MTS assay; format: cell-based, human; conditions: for viability at 10 µM: Homo sapiens, Jurkat T cells, 72 h after treatment, MTS, mean of three independent experiments, read-out: Cell viability (%); for Antiproliferative activity against Jurkat T cells (in words): screening concentration 10 μM, 72 h
Description: The Jurkat T cell line was chosen for its reliability as a model for chemotherapeutic studies, particularly in T-cell leukemia.[13]
An MTS (3-(4,5-dimethylthiazol-2-yl)-5-(3-carboxymethoxyphenyl)-2-(4-sulfophenyl)-2H-tetrazolium inner salt) assay[20] was used to assess the leukemic cell viability. […] A total of 2 × 10^3 cells per 100 μL cell culture media were seeded into each well of a 96-well plate and incubated for 24 h. Then, tested compounds or reference drugs [6-mercaptopurine (Merck Millipore, Germany), methotrexate (Merck Millipore, Germany) and cytarabine (Merck Millipore, Germany)] were added, followed by incubation for 72 h. […] The absorbance in each well was measured at 490 nm using a microplate reader (Tecan NanoQuant Infinite M200 Pro, Austria). The percentage of cell viability was estimated by comparing absorbance in wells with the treated and untreated (vehicle control) cells using the following formula: ODtreated/ODuntreated × 100%. All experiments were performed in triplicate and repeated in three independent experiments. The GI50 values were calculated using sigmoidal concentration-response curves generated by the GraphPad Prism 8 program.[21]

Jurkat T cells [2] = test: Inhibition of Jurkat T cell growth (GI50), MTS assay; format: cell-based; conditions: Homo sapiens
Description: These compounds were selected for further testing to estimate their 50% growth inhibition (GI50) value. Standard antileukemic drugs mercaptopurine, methotrexate and cytarabine were chosen as positive controls.
An MTS (3-(4,5-dimethylthiazol-2-yl)-5-(3-carboxymethoxyphenyl)-2-(4-sulfophenyl)-2H-tetrazolium inner salt) assay[20] was used to assess the leukemic cell viability. Jurkat T cells (human leukemic T cell, clone E6-1) from American Type Culture Collection (ATCC) were cultured in RPMI-1640 medium (Nacalai Tesque, Japan) supplemented with 10% v/v fetal bovine serum (FBS) (Biosera, France). The cells were maintained at 37 °C in a humidified 5% CO2 incubator (Thermo Fisher, USA). A total of 2 × 10^3 cells per 100 μL cell culture media were seeded into each well of a 96-well plate and incubated for 24 h. Then, tested compounds or reference drugs [6-mercaptopurine (Merck Millipore, Germany), methotrexate (Merck Millipore, Germany) and cytarabine (Merck Millipore, Germany)] were added, followed by incubation for 72 h. After that, a mixture of MTS (Sigma Aldrich, USA) and phenazine methosulfate (PMS) (Nacalai Tesque, Japan) were added to each well, followed by another incubation for 1 h to 4 h at 37 °C. The absorbance in each well was measured at 490 nm using a microplate reader (Tecan NanoQuant Infinite M200 Pro, Austria). The percentage of cell viability was estimated by comparing absorbance in wells with the treated and untreated (vehicle control) cells using the following formula: ODtreated/ODuntreated × 100%. All experiments were performed in triplicate and repeated in three independent experiments. The GI50 values were calculated using sigmoidal concentration-response curves generated by the GraphPad Prism 8 program.[21]

[3] = GI50 against Jurkat T cells converted to negative logarithmic scale, read-out: Experimental pGI50 (converted)
[4] = concentration required to inhibit Jurkat T cell growth by 50%, 72 h, MTS, mean of three independent experiments, read-out: GI50 ± SEM

SMILES | viability at 10 µM (Jurkat T cells [1]) [%] | GI50 (Jurkat T cells [2]; [3]) [µM] | GI50 (Jurkat T cells [2]; [4]) [µM] | melting point [°C] | Antiproliferative activity against Jurkat T cells (in words) (Jurkat T cells [1])
CC(C)(C)c1ccc(-c2nc(N)nc(N3CCc4ccccc4C3)n2)cc1 [9{6,7}, 6-[4-(tert-Butyl)phenyl]-4-(3,4-dihydroisoquinolin-2(1H)-yl)-1,3,5-triazine-2-amine] | 1 | 2.45 | 2.43 ± 0.57 | 162 to 164 | 
CC1CCN(c2nc(N)nc(-c3cccs3)n2)CC1 [9{3,18}, 4-(4-Methylpiperidino)-6-(2-thienyl)-1,3,5-triazine-2-amine] | 35 | 28.2 | 28.2 ± 1.03 | 155 to 156 | 
COc1ccc(-c2nc(N)nc(N3CCc4ccccc4C3)n2)cc1OC [9{6,16}, 6-(3,4-Dimethoxyphenyl)-4-(3,4-dihydroisoquinolin-2(1H)-yl)-1,3,5-triazin-2-amine] | 23 | 11.7 | 11.6 ± 2.12 | 159 to 160 | 
Nc1nc(-c2cccc(Oc3ccccc3)c2)nc(N2CCCCC2)n1 [9{2,13}, 4-Piperidino-6-(3-phenoxyphenyl)-1,3,5-triazine-2-amine] | 10 | 6.92 | 6.88 ± 1.22 | 125 to 126 | effectively inhibited Jurkat T cell growth
CN1CCN(c2nc(N)nc(-c3ccc(C(C)(C)C)cc3)n2)CC1 [9{4,7}, 6-[4-(tert-Butyl)phenyl]-4-(4-methylpiperazino)-1,3,5-triazine-2-amine] | 16 | 21.9 | 21.8 ± 1.1 |  | effectively inhibited Jurkat T cell growth
CC1CCN(c2nc(N)nc(-c3ccc(OC(F)(F)F)cc3)n2)CC1 [9{3,12}, 6-[4-(Trifluoromethoxy)phenyl]-4-(4-methylpiperidino)-1,3,5-triazine-2-amine] | 5 | 3.24 | 3.23 ± 0.88 | 152 to 153 | effectively inhibited Jurkat T cell growth
COc1cc(-c2nc(N)nc(N3CCc4ccccc43)n2)cc(OC)c1OC [9{7,17}, 6-(3,4,5-Trimethoxyphenyl)-4-(indolin-1-yl)-1,3,5-triazine-2-amine] | 10 | 6.76 | 6.73 ± 0.43 | 199 to 200 | 
Nc1nc(-c2cccc(OCc3ccccc3)c2)nc(N2CCCCC2)n1 [9{2,14}, 6-[3-(Benzyloxy)phenyl]-4-piperidino-1,3,5-triazine-2-amine] | 8 | 7.76 | 7.68 ± 0.11 | 157 to 158 | effectively inhibited Jurkat T cell growth
Nc1nc(-c2cccc(OCc3ccccc3)c2)nc(N2CCc3ccccc3C2)n1 [9{6,14}, 6-(3-(Benzyloxy)phenyl)-4-(3,4-dihydroisoquinolin-2(1H)-yl)-1,3,5-triazine-2-amine] | 23 | 6.61 | 6.54 ± 0.34 | 143 to 144 | 
CC1CCN(c2nc(N)nc(-c3ccc(C(F)(F)F)cc3)n2)CC1 [9{3,11}, 6-[4-(Trifluoromethyl)phenyl]-4-(4-methylpiperidino)-1,3,5-triazine-2-amine] | 11 | 4.47 | 4.51 ± 0.15 | 170 to 171 | effectively inhibited Jurkat T cell growth
Nc1nc(-c2ccc(OC(F)(F)F)cc2)nc(N2CCc3ccccc3C2)n1 [9{6,12}, 6-[4-(Trifluoromethoxy)phenyl]-4-(3,4-dihydroisoquinolin-2(1H)-yl)-1,3,5-triazine-2-amine] | 3 | 1.17 | 1.18 ± 0.22 | 119 to 120 | 
Nc1nc(-c2cccs2)nc(N2CCc3ccccc32)n1 [9{7,18}, 4-(Indolin-1-yl)-6-(2-thienyl)-1,3,5-triazine-2-amine] | 20 | 6.03 | 6.03 ± 0.64 | 163 to 164 | 
COc1ccc(-c2nc(N)nc(N3CCc4ccccc4C3)n2)cc1 [9{6,9}, 6-(4-Methoxyphenyl)-4-(3,4-dihydroisoquinolin-2(1H)-yl)-1,3,5-triazine-2-amine] | 14 | 29.5 | 29.6 ± 2.2 | 165 to 166 | 
Nc1nc(-c2ccc(OCc3ccccc3)cc2)nc(N2CCc3ccccc32)n1 [9{7,15}, 6-(4-(Benzyloxy)phenyl)-4-(indolin-1-yl)-1,3,5-triazine-2-amine] | 32 | 22.9 | 23.07 ± 0.08 | 188 to 189 | 
Nc1nc(-c2ccccc2)nc(N2CCc3ccccc3C2)n1 [9{6,1}] | 12 | 1.95 | 1.95 ± 0.25 |  | 
CN(C)c1ccc(-c2nc(N)nc(N3CCc4ccccc43)n2)cc1 [9{7,8}, 6-[4-(N,N-Dimethylamino)phenyl]-4-(indolin-1-yl)-1,3,5-triazine-2-amine] | 30 | 2.14 | 2.12 ± 0.97 | 226 to 227 | 
Nc1nc(-c2ccc(OC(F)(F)F)cc2)nc(N2CCCCC2)n1 [9{2,12}, 6-[4-(Trifluoromethoxy)phenyl]-4-piperidino-1,3,5-triazine-2-amine] | 12 | 10.7 | 10.8 ± 0.13 | 136 to 137 | effectively inhibited Jurkat T cell growth
S=c1[nH]cnc2nc[nH]c12 [Mercaptopurine, mercaptopurine, reference compound] |  |  | 11.1 ± 4.89 |  | 
Nc1nc(-c2cccc(Oc3ccccc3)c2)nc(N2CCc3ccccc3C2)n1 [9{6,13}, 4-(3,4-Dihydroisoquinolin-2(1H)-yl)-6-(3-phenoxyphenyl)-1,3,5-triazine-2-amine] | 4 | 1.55 | 1.54 ± 0.66 | 128 to 129 | 
Cc1ccc(-c2nc(N)nc(N3CCc4ccccc4C3)n2)cc1 [9{6,6}, 6-(4-Methylphenyl)-4-(3,4-dihydroisoquinolin-2(1H)-yl)-1,3,5-triazine-2-amine] | 4 | 1.78 | 1.79 ± 0.58 | 166 to 167 | 
Nc1ccn([C@@H]2O[C@H](CO)[C@@H](O)[C@@H]2O)c(=O)n1 [Cytarabine, cytarabine, reference compound] |  |  | 0.29 ± 0.01 |  | 
Nc1nc(-c2ccc(C(F)(F)F)cc2)nc(N2CCc3ccccc3C2)n1 [9{6,11}, 6-[4-(Trifluoromethyl)phenyl]-4-(3,4-dihydroisoquinolin-2(1H)-yl)-1,3,5-triazine-2-amine] | 3 | 3.24 | 3.23 ± 0.16 | 181 to 182 | 
